# Data reported in patent US20080051420A1, “New Compounds 317” (AstraZeneca AB, priority 2006, published 2008).
# Molecular target: T1, human β-secretase (Homo sapiens, UniProt P56817)
# T1 construct: The soluble part of the human β-secretase (AA 1-AA 460) was cloned; made in house
# Assay: TR-FRET assay (β-secretase enzyme, sBACE-Fc)
# Type: biochemical
# Conditions: read-out: IC50 in TR-FRET assay
# Experimental: The enzyme used in the IGEN Cleavage-, Fluorescent-, TR-FRET- and BiaCore assays is described as follows:
# The soluble part of the human β-secretase (AA 1-AA 460) was cloned into the ASP2-F10-1-IRES-GFP-neoK mammalian expression vector. The gene was fused to the Fc domain of IgG1 (affinity tag) and stably cloned into HEK 293 cells. Purified sBACE-Fc is stored in Tris buffer, pH 9.2 and has a purity of 95%.
# Enzyme was diluted to 6 μg/mL and the substrate (Europium)[…](Qsy7) to 200 nM in reaction buffer (NaAcetate, chaps, triton x-100, EDTA pH 4.5). Compounds were diluted to the desired concentration in dimethyl sulfoxide (final dimethyl sulfoxide concentration in assay is 5%). […] Enzyme (9 μL) and 1 μL of compound in dimethyl sulfoxide was added to the plate, mixed and pre-incubated for 10 min. Substrate (10 μL) was added and the reaction proceeded in the dark for 15 min at RT. The reaction was stopped with the addition of 7 μL NaAcetate, pH 9. […] The dimethyl sulfoxide control defined the 100% activity level and 0% activity was defined by exclusion of the enzyme (using reaction buffer instead).
# T1 sequence (P56817 22-460): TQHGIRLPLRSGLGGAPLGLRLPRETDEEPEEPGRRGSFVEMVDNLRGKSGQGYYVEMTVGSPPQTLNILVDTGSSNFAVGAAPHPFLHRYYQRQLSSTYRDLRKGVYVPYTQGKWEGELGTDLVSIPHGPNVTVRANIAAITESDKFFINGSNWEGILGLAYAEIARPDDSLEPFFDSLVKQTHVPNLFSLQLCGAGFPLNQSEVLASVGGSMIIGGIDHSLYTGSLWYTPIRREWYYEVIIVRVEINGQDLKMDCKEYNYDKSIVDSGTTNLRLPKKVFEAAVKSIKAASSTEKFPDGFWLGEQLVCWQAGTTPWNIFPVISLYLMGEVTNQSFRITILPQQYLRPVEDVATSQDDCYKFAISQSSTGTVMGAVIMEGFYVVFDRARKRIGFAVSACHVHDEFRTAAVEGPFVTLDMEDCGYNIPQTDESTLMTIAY
row,IC50,Compound
1,375 nM,"NC1=NC(c2cccc(OS(=O)(=O)C(F)(F)F)c2)(c2cccc(-c3cncnc3)c2)C2=NCCCN12 (stereo not shown) [Example 132, 3-[6-Amino-8-(3-pyrimidin-5-ylphenyl)-2,3,4,8-tetrahydroimidazo[1,5-a]pyrimidin-8-yl]phenyl trifluoromethanesulfonate]"
2,375 nM,"COc1cc(OS(C)(=O)=O)cc(-c2cccc(C3(c4cccc(OC)c4)N=C(N)N4CCCN=C43)c2)c1 (stereo not shown) [Example 133, 3′-[6-Amino-8-(3-methoxyphenyl)-2,3,4,8-tetrahydroimidazo[1,5-a]pyrimidin-8-yl]-5-methoxybiphenyl-3-yl methanesulfonate]"
3,224 nM,"CN(C)C(=O)c1cccc(C2(c3cccc(-c4cccnc4F)c3)N=C(N)N3CC(F)(F)CN=C32)c1 (stereo not shown) [Example 145, 3-{6-Amino-3,3-difluoro-8-[3-(2-fluoropyridin-3-yl)phenyl]-2,3,4,8-tetrahydroimidazo[1,5-a]pyrimidin-8-yl}-N,N-dimethylbenzamide]"
4,214 nM,"CN(C)C(=O)c1ccc(C2(c3cccc(-c4cccnc4F)c3)N=C(N)N3CC(F)(F)CN=C32)cc1 (stereo not shown) [Example 146, 4-{6-Amino-3,3-difluoro-8-[3-(2-fluoropyridin-3-yl)phenyl]-2,3,4,8-tetrahydroimidazo[1,5-a]pyrimidin-8-yl}-N,N-dimethylbenzamide]"
